In brackets after ≈: the same amount, converted by molar mass.
Experiments:
Assay type in all cases: cell-based
[1] = tested on: S. aureus No. 80; assay: In vitro antibacterial activity, twofold agar-dilution MIC; conditions: Staphylococcus aureus; S. aureus No. 80; Mueller-Hinton agar, 20-hour incubation at 37 °C; calculated for free base; read-out: minimum inhibitory concentrations (MIC)
Method: (§1) The figures in the table show minimum inhibitory concentrations (MIC) (µg/ml), calculated for free base. […] One loopful of an overnight culture of test organisms in Mueller-Hinton broth was inoculated onto 10 ml drug- containing agar layers in petri dishes. Bacterial inocula contained approximately 10⁶ colonyl-forming units. […] The MIC was defined as the lowest drug concentration which prevented visible bacterial growth.

[2] = tested on: E. coli NIHJ JC-2; assay: as above; conditions: Escherichia coli, NIHJJC2; E. coli NIHJ JC-2; Mueller-Hinton agar, 20-hour incubation at 37 °C; calculated for free base; read-out: minimum inhibitory concentrations (MIC)
Method: as §1

[3] = tested on: E. coli P-5101; assay: as above; conditions: Escherichia coli, P5101; E. coli P-5101; Mueller-Hinton agar, 20-hour incubation at 37 °C; calculated for free base; read-out: minimum inhibitory concentrations (MIC)
Method: as §1

[4] = tested on: S. epidermidis No. 8; assay: as above; conditions: Staphylococcus epidermidis; S. epidermidis No. 8; Mueller-Hinton agar, 20-hour incubation at 37 °C; calculated for free base; read-out: minimum inhibitory concentrations (MIC)
Method: as §1

[5] = tested on: P. aeruginosa 12; assay: as above; conditions: Pseudomonas aeruginosa; P. aeruginosa 12; Mueller-Hinton agar, 20-hour incubation at 37 °C; calculated for free base; read-out: minimum inhibitory concentrations (MIC)
Method: as §1

[6] = tested on: S. aureus 209 JC-1; assay: as above; conditions: Staphylococcus aureus, 209JC1; S. aureus 209 JC-1; Mueller-Hinton agar, 20-hour incubation at 37 °C; calculated for free base; read-out: minimum inhibitory concentrations (MIC)
Method: as §1

[7] = tested on: S. marcescens S-9; assay: as above; conditions: Serratia marcescens, S9; S. marcescens S-9; Mueller-Hinton agar, 20-hour incubation at 37 °C; calculated for free base; read-out: minimum inhibitory concentrations (MIC)
Method: as §1

[8] = tested on: S. aureus Terajima; assay: as above; conditions: Staphylococcus aureus; S. aureus Terajima; Mueller-Hinton agar, 20-hour incubation at 37 °C; calculated for free base; read-out: minimum inhibitory concentrations (MIC)
Method: as §1

[9] = tested on: S. pyogenes A65; assay: as above; conditions: Streptococcus pyogenes; S. pyogenes A65; Mueller-Hinton agar, 20-hour incubation at 37 °C; calculated for free base; read-out: minimum inhibitory concentrations (MIC)
Method: as §1

[10] = tested on: M. arginini G-230; assay: Antimycoplasma activity, twofold agar dilution MIC; conditions: 48 h; M. arginini G-230; Chanock agar, 37 °C for 2 days, aerobically; calculated for free base; read-out: minimum inhibitory concentrations (MIC)
Method: (§2) The figures in the table show minimum inhibitory concentrations (MIC), (μg/ml), calculated for free base. Minimum inhibitory concentrations (MIC) were determined by the twofold agar dilution method. The media used were Chanock broth and agar [PPLD broth and agar (Difco) supplemented with 20 % horse serum and 10 % fresh yeast extract]. A 2-3 day broth culture of organisms was diluted with Chanock broth to a cell density of about 10^6 cells/ml. One loopful (about […]) of the organism dilution was spotted onto 10-ml drug containing Chanock agar in petri dishes using a multiple inoculator ([…] International). […] Incubation was performed anaerobically using the […] anaerobic system (BBL) for M. buccale, M. fermentans, M. hominis, M. orale and M. salivarium, and aerobically for other Mycoplasma spp. The MIC was defined as the lowest compound concentration at which no growth of organism was detected.

[11] = tested on: M. hominis PG-21; assay: Antimycoplasma activity, twofold agar dilution MIC; conditions: Metamycoplasma hominis, PG21, 48 h; M. hominis PG-21; Chanock agar, 37 °C for 2 days, anaerobically; calculated for free base; read-out: minimum inhibitory concentrations (MIC)
Method: as §2

[12] = tested on: M. salivarium PG-20; assay: Antimycoplasma activity, twofold agar dilution MIC; conditions: 48 h; M. salivarium PG-20; Chanock agar, 37 °C for 2 days, anaerobically; calculated for free base; read-out: minimum inhibitory concentrations (MIC)
Method: as §2

[13] = tested on: M. orale CH-19299; assay: Antimycoplasma activity, twofold agar dilution MIC; conditions: po, 48 h; M. orale CH-19299; Chanock agar, 37 °C for 2 days, anaerobically; calculated for free base; read-out: minimum inhibitory concentrations (MIC)
Method: as §2

[14] = tested on: M. pneumoniae Mac; assay: Antimycoplasma activity, twofold agar dilution MIC; conditions: Mycoplasmoides pneumoniae, 168 h; M. pneumoniae Mac; Chanock agar, 37 °C for 7 days, aerobically; calculated for free base; read-out: minimum inhibitory concentrations (MIC)
Method: as §2

[15] = tested on: M. buccale CH-20249; assay: Antimycoplasma activity, twofold agar dilution MIC; conditions: 48 h; M. buccale CH-20249; Chanock agar, 37 °C for 2 days, anaerobically; calculated for free base; read-out: minimum inhibitory concentrations (MIC)
Method: as §2

[16] = tested on: M. fermentans PG-18; assay: Antimycoplasma activity, twofold agar dilution MIC; conditions: Mycoplasmopsis fermentans, PG18, 48 h; M. fermentans PG-18; Chanock agar, 37 °C for 2 days, anaerobically; calculated for free base; read-out: minimum inhibitory concentrations (MIC)
Method: as §2

[17] = tested on: M. hyorhinis BST-7; assay: Antimycoplasma activity, twofold agar dilution MIC; conditions: Mesomycoplasma hyorhinis, BST7, 48 h; M. hyorhinis BST-7; Chanock agar, 37 °C for 2 days, aerobically; calculated for free base; read-out: minimum inhibitory concentrations (MIC)
Method: as §2

[18] = tested on: A. laidlawii PG-8; assay: Antimycoplasma activity, twofold agar dilution MIC; conditions: Acholeplasma laidlawii, PG8, 48 h; A. laidlawii PG-8; Chanock agar, 37 °C for 2 days, aerobically; calculated for free base; read-out: minimum inhibitory concentrations (MIC)
Method: as §2

Cc1c(F)c(N2C[C@@H](C)N[C@@H](C)C2)c(F)c2c1c(=O)c(C(=O)O)cn2C1CC1 [Compound 1, 1-cyclopropyl-6,8-difluoro-5-methyl-7-(cis-3,5-demethyl-1-piperazinyl)-1,4-dihydro-4-oxoquinoline-3-carboxylic acid]
MIC [1]: 0.0125 µg/mL (≈ 0.0319 µM) | MIC [2]: 0.025 µg/mL (≈ 0.0639 µM) | MIC [3]: 0.025 µg/mL (≈ 0.0639 µM) | MIC [4]: 0.025 µg/mL (≈ 0.0639 µM) | MIC [5]: 0.2 µg/mL (≈ 0.511 µM) | MIC [6]: 0.05 µg/mL (≈ 0.128 µM) | MIC [7]: 0.39 µg/mL (≈ 0.996 µM) | MIC [8]: 0.05 µg/mL (≈ 0.128 µM) | MIC [9]: 0.2 µg/mL (≈ 0.511 µM) | MIC [10]: 0.025 µg/mL (≈ 0.0639 µM) | MIC [11]: 0.05 µg/mL (≈ 0.128 µM) | MIC [12]: 0.1 µg/mL (≈ 0.255 µM) | MIC [13]: 0.2 µg/mL (≈ 0.511 µM) | MIC [14]: 0.05 µg/mL (≈ 0.128 µM) | MIC [15]: 0.025 µg/mL (≈ 0.0639 µM) | MIC [16]: 0.025 µg/mL (≈ 0.0639 µM) | MIC [17]: 0.025 µg/mL (≈ 0.0639 µM) | MIC [18]: 0.05 µg/mL (≈ 0.128 µM)

Reference: patent publication EP0319906A2, “Novel quinoline derivatives, processes for preparation thereof and antibacterial agent containing them” (Dainippon Pharmaceutical Co., Ltd., priority 1987, dated 1989)
